Data as given in patent US11447467B2, “Compounds for the degradation of STK4 and treatment of hematologic malignancies” (DANA-FARBER CANCER INSTITUTE, INC., priority 2017, dated 2022).

Key:
STK4 = molecular target: T1, STK4 (Homo sapiens, UniProt Q13043); assay: Western blotting of STK4 in whole cell lysates of MM.1S cells (parental or CRBN-knockout); format: cell-based; conditions: for downregulation of STK4 in MM.1S cells (FIG. 1): immunoblotting anti-STK4/anti-GAPDH; for degradation of STK4 in cereblon-knockout cells (FIG. 8): CRBN-K.O. vs parental MM.1S cells; for downregulation of STK4 over time (FIG. 3B): 10 μM; for downregulation of STK4 in MM.1S cells (FIG. 7): 0.6-20 μM; for degradation of STK4 in the presence of MLN4924 (FIG. 9): compound 10 μM, NEDD8 inhibitor MLN4924 1 μM
T1 construct: endogenous in cells; host or cells: MM.1S and CRBN-knockout MM.1S cells
T1 sequence (Q13043 1-487): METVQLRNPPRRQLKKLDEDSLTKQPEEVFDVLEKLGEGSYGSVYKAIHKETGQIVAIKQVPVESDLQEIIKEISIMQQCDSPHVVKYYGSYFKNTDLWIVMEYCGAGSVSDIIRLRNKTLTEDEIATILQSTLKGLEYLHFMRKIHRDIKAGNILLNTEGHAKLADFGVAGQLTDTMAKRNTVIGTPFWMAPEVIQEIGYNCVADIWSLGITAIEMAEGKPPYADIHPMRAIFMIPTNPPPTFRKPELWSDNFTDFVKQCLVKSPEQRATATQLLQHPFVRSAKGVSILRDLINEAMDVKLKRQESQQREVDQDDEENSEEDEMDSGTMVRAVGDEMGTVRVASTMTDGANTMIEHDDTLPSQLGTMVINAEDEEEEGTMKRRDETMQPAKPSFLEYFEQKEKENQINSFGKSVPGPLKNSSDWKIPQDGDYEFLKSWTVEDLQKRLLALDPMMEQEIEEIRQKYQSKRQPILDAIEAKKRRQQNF
Description: MM.1S, KMS20 and H929 cells are counted, diluted and plated. Cells are then […] with DMSO or different concentration of a compound of the present application for 6 hrs, 24 hrs or 48 hrs. MM cells are then collected and centrifuged at RT and the pellets are re-suspended in lysis buffer. Cell lysates are subjected to sodium dodecyl sulfate-polyacrylamide gel electrophoresis SDS-PAGE, transferred to nitrocellulose membranes, and immunoblotted with different antibodies.
MM.1S and CRBN knockout MM.1S cells were counted, diluted and plated in six-well plates to a final concentration of 500,000 cells/well. Cells were then harvested with DMSO or different concentration of a compound of the present application (4 h-24 h). MM cells were then collected and centrifuged for 5 min, 1300 rpm at RT. The pellets were re-suspended in cell lysis buffer (20 mM Tris-HCl (pH 7.5), 150 mM NaCl, 1 mM Na2EDTA, 1 mM EGTA, 1% Triton, 2.5 mM sodium pyrophosphate, 1 mM beta-glycerophosphate, 1 mM Na3VO4, 1 μg/ml leupeptin. Cell lysates were subjected to sodium dodecyl sulfate-polyacrylamide gel electrophoresis SDS-PAGE, transferred to nitrocellulose membranes, and immunoblotted with different antibodies: MST1 (STK4) (#14946), K48-linkage Specific Polyubiquitin (#8081) and GAPDH (#5174) from Cell Signaling, Beverly, Mass., United States: IKZF1 (AF4984) (from R&D Systems, Mineapolis, Minn., United States). All antibodies were diluted 1:1000, except for GAPDH antibody (1:4,000 dilution).

[1] = tested on: MM.1S cells resistant to lenalidomide (Len-R #1); assay: MTT cell growth assay, lenalidomide-resistant MM.1S cells; format: cell-based, human; conditions: Len-R #1 MM.1S cells, 0.2-20 μM, 72 h
[2] = tested on: CRBN-knockout MM.1S cells; assay: MTT cell growth assay, CRBN-knockout MM.1S cells; format: cell-based, human; conditions: for cytotoxicity in CRBN-knockout cells (FIG. 11): 0.2-20 μM, 72 h; for cytotoxicity in CRBN-knockout cells (FIG. 5): parental or CRBN-knockout MM.1S cells, 24 h, 0.1-10 μM, MTT
Protocol: (§1) Dexamethasone-sensitive MM.1S human MM cell line were kindly provided by Dr. Steven Rosen (Northwestern University, Chicago, Ill., United States). Creblon stable knockout MM.1S cells were established in our laboratory using lentiviral CRBN shRNA system. The cell lines were routinely tested for Mycoplasma, and genotyped with two different methods. Peripheral blood mononuclear cells were obtained from healthy volunteer by Ficoll-Paque centriguation. All MM cell lines and PBMCs were cultured in RPMI-1640 media (EuroClone, Pero, Italy) containing 10% fetal bovine serum (FBS, GIBCO, Life technologies, Carlsbad, Calif., United States), and a mix of penicillin and streptomycin to 1% from EuroClone (ECB3001).
(§2) MM.1S and CRBN-knockout MM.1S cells were counted and diluted to a final concentration of 400,000 cells/mL. The cell were plated in 96-well plates and mixed with an equal volume of culture media containing DMSO or increasing concentration of a compound of the present application diluted in DMSO (the final DMSO concentration is equal between all tested samples), using a STARlet Robot (Hamiltonrobotics, Reno, Nev., United States). Cells with increasing concentration of compound of the present application and DMSO were harvested at different time points (24 hrs to 72 hrs). For assessment of celll growth MTT assay, the 3-[4,5 dimethylthiazol-2-yl]-2,5 diphenyltetrazolium bromide-MTT (Sigma-Aldrich, St. Louis, Mo., Unites States) colorimetric assay was used. At the various time points (24-72 hrs), 10 μL of 5 mg/mL MTT were added to cells. After 4 hrs incubation at 37° C., medium was discarded and 100 μL MTT stop solution (Isopropanol with 1 N HCl) was used to dissolve MTT metabolic products. Absorbance was read at 570/630 nm.

[3] = tested on: Peripheral blood mononuclear cells (PBMCs) from healthy volunteer; assay: MTT cell growth assay, peripheral blood mononuclear cells; format: cell-based, human; conditions: PBMCs from healthy volunteer vs MM.1S cells, 48 h
Protocol: as §1
MM.1S and CRBN-knockout MM.1S cells were counted and diluted to a final concentration of 400,000 cells/mL. The cell were plated in 96-well plates and mixed with an equal volume of culture media containing DMSO or increasing concentration of a compound of the present application diluted in DMSO (the final DMSO concentration is equal between all tested samples), using a STARlet Robot (Hamiltonrobotics, Reno, Nev., United States). Cells with increasing concentration of compound of the present application and DMSO were harvested at different time points (24 hrs to 72 hrs). […] Absorbance was read at 570/630 nm.

MM.1S cells = assay: MTT cell growth assay, MM.1S cells; format: cell-based, human; conditions: 72 h; for MM cell growth inhibition (FIG. 10): 0.2-20 μM; for potency in inhibiting MM cell growth as compared to lenalidomide (FIG. 15): comparator lenalidomide (Len)
Protocol: as §1, §2

[4] = MM.1S cells, 24 h, indicated concentrations

`Nc1ncc(-c2ccc(S(=O)(=O)NC3CCCN(C(=O)CCOCCOCCOCCOCCOCCNc4cccc5c4C(=O)N(C4CCC(=O)NC4=O)C5=O)C3)cc2F)cc1-c1ccc2c(c1)CCNC2=O` (centres unmarked) [Compound I-20, 4-(6-amino-5-(1-oxo-1,2,3,4-tetrahydroisoquinolin-1-yl)pyridin-3-yl)-N-(1-(1-((2-(2,6-dioxopiperidin-3-yl)-1,3-dioxoisoindolin-4-yl)amino)-3,6,9,12,15-pentaoxaoctadecan-18-oyl)piperidin-3-yl)-3-fluorobenzenesulfonamide] was tested, and the “downregulation of STK4 in MM.1S cells (FIG. 1)” value (from here on “downregulation … (FIG. 1)”) (STK4; [4]) was “dose dependent downregulation of STK4”.

For `Nc1ncc(-c2ccc(S(=O)(=O)Nc3cccc(NC(=O)CCOCCOCCOCCOCCOCCNc4cccc5c4C(=O)N(C4CCC(=O)NC4=O)C5=O)c3)cc2F)cc1-c1ccc2c(c1)CCNC2=O` (centres unmarked) [Compound I-10], the “cytotoxicity in acquired lenalidomide-resistant cells (FIG. 12B)” value [1] was “decrease in cytotoxicity”, the “degradation of STK4 in cereblon-knockout cells (FIG. 8)” value (STK4; 24 h) was “absence of degradation of STK4” and the “downregulation of STK4 over time (FIG. 3B)” value (STK4; MM.1S cells, 4-24 h) was “downregulation of STK4 by compounds of the application in a time-dependent fashion”. For the same molecule, the “downregulation of STK4 in MM.1S cells (FIG. 7)” value (STK4; MM.1S cells, 24 h) was “dose dependent downregulation of STK4”, the “downregulation … (FIG. 1)” value (STK4; [4]) was “dose dependent downregulation of STK4” and the “degradation of STK4 in the presence of MLN4924 (FIG. 9)” value (STK4; MM.1S cells, 24 h) was “absence of degradation of STK4”. For the same molecule, the “cytotoxicity in CRBN-knockout cells (FIG. 11)” value [2] was “decrease in cytotoxicity”, the “cytotoxicity in CRBN-knockout cells (FIG. 5)” value [2] was “decrease in cytotoxicity” and the “cytotoxicity to peripheral blood mononuclear cells (FIG. 13A/13B)” value [3] was “absence of cytotoxic”. For the same molecule, the “MM cell growth inhibition (FIG. 10)” value (MM.1S cells) was “potent MM cell growth inhibition” and the “potency in inhibiting MM cell growth as compared to lenalidomide (FIG. 15)” value (MM.1S cells) was “greater potency”.

For `Nc1ncc(-c2ccc(S(=O)(=O)Nc3cccc(NC(=O)CCOCCOCCOCCOCCOCCOc4cccc5c4C(=O)N(C4CCC(=O)NC4=O)C5=O)c3)cc2F)cc1-c1ccc2c(c1)CCNC2=O` (centres unmarked) [Compound I-17], the “downregulation of STK4 over time (FIG. 3B)” value (STK4; MM.1S cells, 4-24 h) was “downregulation of STK4 by compounds of the application in a time-dependent fashion”.

With `Nc1ncc(-c2ccc(S(=O)(=O)Nc3ccc(NC(=O)CCOCCOCCOCCOCCOCCNc4cccc5c4C(=O)N(C4CCC(=O)NC4=O)C5=O)cc3)cc2F)cc1-c1ccc2c(c1)CCNC2=O` (centres unmarked) [Compound I-7, N-(4-((4-(6-amino-5-(1-oxo-1,2,3,4-tetrahydroisoquinolin-6-yl)pyridin-3-yl)-3-fluorophenyl)sulfonamido)phenyl)-1-((2-(2,6-dioxopiperidin-3-yl)-1,3-dioxoisoindolin-4-yl)amino)-3,6,9,12,15-pentaoxaoctadecan-18-amide] the “cytotoxicity in acquired lenalidomide-resistant cells (FIG. 12B)” value [1] was “decrease in cytotoxicity”, the “degradation of STK4 in cereblon-knockout cells (FIG. 8)” value (STK4; 24 h) was “absence of degradation of STK4” and the “downregulation of STK4 in MM.1S cells (FIG. 7)” value (STK4; MM.1S cells, 24 h) was “dose dependent downregulation of STK4”. For the same molecule, the “degradation of STK4 in the presence of MLN4924 (FIG. 9)” value (STK4; MM.1S cells, 24 h) was “absence of degradation of STK4”, the “cytotoxicity in CRBN-knockout cells (FIG. 11)” value [2] was “decrease in cytotoxicity” and the “cytotoxicity to peripheral blood mononuclear cells (FIG. 13A/13B)” value [3] was “absence of cytotoxic”. For the same molecule, the “MM cell growth inhibition (FIG. 10)” value (MM.1S cells) was “potent MM cell growth inhibition” and the “potency in inhibiting MM cell growth as compared to lenalidomide (FIG. 15)” value (MM.1S cells) was “greater potency”.

`Nc1ncc(-c2ccc(S(=O)(=O)N(CCCNC(=O)CCOCCOCCOCCOCCOCCNc3cccc4c3C(=O)N(C3CCC(=O)NC3=O)C4=O)C3CC3)cc2F)cc1-c1ccc2c(c1)CCNC2=O` (centres unmarked) [Compound I-19, N-(3-((4-(6-amino-5-(1-oxo-1,2,3,4-tetrahydroisoquinolin-6-yl)pyridin-3-yl)-N-cyclopropyl-3-fluorophenyl)sulfonamido)propyl)-1-((2-(2,6-dioxopiperidin-3-yl)-1,3-dioxoisoindolin-4-yl)amino)-3,6,9,12,15-pentaoxaoctadecan-18-amide] was tested, and the “downregulation of STK4 over time (FIG. 3A)” value (STK4; MM.1S cells, 2.5 μM, 4-24 h) was “downregulation of STK4 by compounds of the application in a time-dependent fashion”, the “downregulation of STK4 in MM.1S cells (FIG. 2)” value (STK4; MM.1S cells, 24 h, 0.15-5 μM, Western blotting) was “dose dependent downregulation of STK4” and the “downregulation … (FIG. 1)” value (STK4; [4]) was “dose dependent downregulation of STK4”. For the same molecule, the “degradation of STK4 in cereblon-knockout cells (FIG. 4)” value (STK4; cereblon (CRBN)-knockout vs parental MM.1S cells, 24 h, indicated concentrations) was “absence of degradation of STK4” and the “cytotoxicity in CRBN-knockout cells (FIG. 5)” value [2] was “decrease in cytotoxicity”.
